The supplement of paper PMC11208160

Experiment: recombinant barcode read abundance after kanamycin selection (control-corrected) (log10(CPM+1)); higher = more efficient recombination; sequences stand for … in AGTGCAGAGAAAATCGGCCAGTTTTCTCTGCCTGCAGTCCGCATGCCGT…AGATTTATGCAGCGGACTGCCTTTCTCCCAAAGTGATAAACCGGACAGTATCATGGACCGGTTTTCCCGGTAATCCGTATTTGCAAGGTTGGTTTCACT; site = the 11-nt target
How it was run: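 Pooled oligos, each joining a target to an IS621 bridge RNA target-binding loop, were cloned and co-electroporated with a donor plasmid into E. coli. Selective plates carried chloramphenicol/ampicillin/kanamycin and 0.1 mM IPTG, while chloramphenicol/ampicillin LB agar served as control, with two replicates of each. Recombination efficiency rests on averaged, control-corrected counts per million of barcodes at recombinant junctions, shown as log10(CPM+1).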
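Also: IS621 recombinase and bridge RNA in Escherichia coli cells.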

Sequence | recombinant barcode read abundance (log10)
TCTTGTCCTTGGGTTCTAACCTGTTGCGG (site TCTTGTCCTGC) | 0.104
TCTTGTCCTTGGGTTCTAACCTGTTGCGG (site TCTTGTCCTTC) | 0.0135
TCTTTAGCTTGGGTTCTAACCTGTTGCAG (site CTAAGGTCTTA) | 0.24
TCTTTAGCTTGGGTTCTAACCTGTTGCAG (site TCTTTAGCTCT) | 0.236
TGAAACTCTTGGGTTCTAACCTGTTGCGG (site GTCGGTCCTGT) | 0.27
TGAAACTCTTGGGTTCTAACCTGTTGCGG (site TGAAACTCTCC) | 1.16
TGAAAGACTTGGGTTCTAACCTGTTGCCG (site GACGGACCTAT) | 0.475
TGAAAGACTTGGGTTCTAACCTGTTGCCG (site TGAAAGACTCG) | 0.762
TGAAGGTCTTGGGTTCTAACCTGTTGCCT (site TGAAAGTCTAG) | 0.213
TGAAGGTCTTGGGTTCTAACCTGTTGCCT (site TGAACGTCTAG) | 0.175
TGAAGGTCTTGGGTTCTAACCTGTTGCCT (site TGAAGGTCTAG) | 0.485
TGAAGGTCTTGGGTTCTAACCTGTTGCCT (site TGAATGTCTAG) | 0.362
TGACCTACTTGGGTTCTAACCTGTTGCCA (site CTCTACTCTAC) | 0.242
TGACCTACTTGGGTTCTAACCTGTTGCCA (site TGACCTACTTG) | 0.133
TGACTCTCTTGGGTTCTAACCTGTTGCCT (site TAACTCTCTAG) | 0.163
TGACTCTCTTGGGTTCTAACCTGTTGCCT (site TCACTCTCTAG) | 0.172
TGACTCTCTTGGGTTCTAACCTGTTGCCT (site TGACTCTCTAG) | 1.02
TGACTCTCTTGGGTTCTAACCTGTTGCCT (site TTACTCTCTAG) | 0.228
TGAGAAGCTTGGGTTCTAACCTGTTGCCT (site TGACCAGCTAG) | 0.299
TGAGAAGCTTGGGTTCTAACCTGTTGCCT (site TGAGAAGCTAG) | 1.1
TGAGCACCTTGGGTTCTAACCTGTTGCCT (site AGAGGACCTAG) | 0.158
TGAGCACCTTGGGTTCTAACCTGTTGCCT (site TGAGCACCTAG) | 1.74

Sequence | recombinant barcode read abundance (log10)
TGAGGCACTTGGGTTCTAACCTGTTGCCT (site TGAGGATCTAG) | 0.03
TGAGGCACTTGGGTTCTAACCTGTTGCCT (site TGAGGCACTAG) | 0.474
TGAGGGCCTTGGGTTCTAACCTGTTGCCT (site AGAGGTCCTAG) | 0.186
TGAGGGCCTTGGGTTCTAACCTGTTGCCT (site TGAGGGCCTAG) | 1.26
TGAGGGGCTTGGGTTCTAACCTGTTGCCT (site TGAGAGGCTAG) | 0.275
TGAGGGGCTTGGGTTCTAACCTGTTGCCT (site TGAGCGGCTAG) | 0.242
TGAGGGGCTTGGGTTCTAACCTGTTGCCT (site TGAGGGGCTAG) | 1.24
TGAGGGGCTTGGGTTCTAACCTGTTGCCT (site TGAGTGGCTAG) | 0.197
TGAGGGTCTTGGGTTCTAACCTGTTGCTT (site AGAGGGTCTAA) | 0.497
TGAGGGTCTTGGGTTCTAACCTGTTGCTT (site CGAGGGTCTAA) | 0.136
TGAGGGTCTTGGGTTCTAACCTGTTGCTT (site GGAGGGTCTAA) | 0.0368
TGAGGGTCTTGGGTTCTAACCTGTTGCTT (site TGAGGGTCTAA) | 0.452
TGAGTCTCTTGGGTTCTAACCTGTTGCCA (site ACCCAGCCTCT) | 0.0473
TGAGTCTCTTGGGTTCTAACCTGTTGCCA (site TGAGTCTCTTG) | 1.47
TGAGTTCCTTGGGTTCTAACCTGTTGCTT (site TGAGTACCTAA) | 0.0626
TGAGTTCCTTGGGTTCTAACCTGTTGCTT (site TGAGTCCCTAA) | 0.0401
TGAGTTCCTTGGGTTCTAACCTGTTGCTT (site TGAGTGCCTAA) | 0.00865
TGAGTTCCTTGGGTTCTAACCTGTTGCTT (site TGAGTTCCTAA) | 0.719
TGATAGACTTGGGTTCTAACCTGTTGCAC (site AGAGAGACTGT) | 0.0172
TGATAGACTTGGGTTCTAACCTGTTGCAC (site TGATAGACTGT) | 1.38
TGATTTCCTTGGGTTCTAACCTGTTGCCT (site AGATTGCCTAG) | 0
TGATTTCCTTGGGTTCTAACCTGTTGCCT (site TGATTTCCTAG) | 0

Sequence | recombinant barcode read abundance (log10)
TGCAATACTTGGGTTCTAACCTGTTGCAT (site ACAGTATCTCA) | 0.054
TGCAATACTTGGGTTCTAACCTGTTGCAT (site TGCAATACTAT) | 0.136
TGCAGGGCTTGGGTTCTAACCTGTTGCGG (site GCATACACTTG) | 0.177
TGCAGGGCTTGGGTTCTAACCTGTTGCGG (site TGCAGGGCTCC) | 1.26
TGCCAGACTTGGGTTCTAACCTGTTGCAT (site TGCCAGACTAT) | 1.12
TGCCAGACTTGGGTTCTAACCTGTTGCAT (site TGCCAGCCTAG) | 0.466
TGCCCGCCTTGGGTTCTAACCTGTTGCCT (site AGCCCGCCTAG) | 0.0736
TGCCCGCCTTGGGTTCTAACCTGTTGCCT (site CGCCCGCCTAG) | 0.102
TGCCCGCCTTGGGTTCTAACCTGTTGCCT (site GGCCCGCCTAG) | 0.757
TGCCCGCCTTGGGTTCTAACCTGTTGCCT (site TGCCCGCCTAG) | 0.292
TGCCGACCTTGGGTTCTAACCTGTTGCCT (site TGCCGACCTAG) | 0.321
TGCCGACCTTGGGTTCTAACCTGTTGCCT (site TGCGGAGCTAG) | 0.185
TGCCTAGCTTGGGTTCTAACCTGTTGCCT (site TGACTAGCTAG) | 0.0824
TGCCTAGCTTGGGTTCTAACCTGTTGCCT (site TGCCTAGCTAG) | 0.24
TGCCTAGCTTGGGTTCTAACCTGTTGCCT (site TGGCTAGCTAG) | 0.11
TGCCTAGCTTGGGTTCTAACCTGTTGCCT (site TGTCTAGCTAG) | 0.0825
TGCCTATCTTGGGTTCTAACCTGTTGCTT (site ATGTCTACTCT) | 0.325
TGCCTATCTTGGGTTCTAACCTGTTGCTT (site TGCCTATCTAA) | 0.52
TGCCTGCCTTGGGTTCTAACCTGTTGCCT (site AAGACAACTCC) | 0.06
TGCCTGCCTTGGGTTCTAACCTGTTGCCT (site TGCCTGCCTAG) | 0.287
TGCGCCTCTTGGGTTCTAACCTGTTGCTG (site TACGCCTCTTA) | 0.108
TGCGCCTCTTGGGTTCTAACCTGTTGCTG (site TGCGCCTCTCA) | 1.26

Sequence | recombinant barcode read abundance (log10)
TGCGCTACTTGGGTTCTAACCTGTTGCCT (site TGCGCAACTAG) | 0.0205
TGCGCTACTTGGGTTCTAACCTGTTGCCT (site TGCGCCACTAG) | 0.0462
TGCGCTACTTGGGTTCTAACCTGTTGCCT (site TGCGCGACTAG) | 0.141
TGCGCTACTTGGGTTCTAACCTGTTGCCT (site TGCGCTACTAG) | 0.25
TGCGGAGCTTGGGTTCTAACCTGTTGCCG (site GATTATACTAA) | 0.0782
TGCGGAGCTTGGGTTCTAACCTGTTGCCG (site TGCGGAGCTCG) | 0.726
TGCGTCCCTTGGGTTCTAACCTGTTGCCT (site TGAGTCCCTAG) | 0.405
TGCGTCCCTTGGGTTCTAACCTGTTGCCT (site TGCGTCCCTAG) | 0.291
TGCGTCCCTTGGGTTCTAACCTGTTGCCT (site TGGGTCCCTAG) | 0.117
TGCGTCCCTTGGGTTCTAACCTGTTGCCT (site TGTGTCCCTAG) | 0.0158
TGCTCCTCTTGGGTTCTAACCTGTTGCCT (site AGCTCCTCTAG) | 0.0656
TGCTCCTCTTGGGTTCTAACCTGTTGCCT (site CGCTCCTCTAG) | 0.153
TGCTCCTCTTGGGTTCTAACCTGTTGCCT (site GGCTCCTCTAG) | 0.109
TGCTCCTCTTGGGTTCTAACCTGTTGCCT (site TGCTCCTCTAG) | 0.274
TGCTTCCCTTGGGTTCTAACCTGTTGCGG (site TGCTTCCCTCC) | 0.594
TGCTTCCCTTGGGTTCTAACCTGTTGCGG (site TGGTGCCCTCC) | 0.114
TGGACGACTTGGGTTCTAACCTGTTGCTT (site GATCGAGCTCT) | 0.0173
TGGACGACTTGGGTTCTAACCTGTTGCTT (site TGGACGACTAA) | 0.592
TGGACGCCTTGGGTTCTAACCTGTTGCCT (site TGGACGCCTAG) | 0.252
TGGACGCCTTGGGTTCTAACCTGTTGCCT (site TGGACGTCTAG) | 0.0267
